Assay results: patent US20110166112A1, “METHOD FOR STIMULATING PLATELET PRODUCTION” (Eisai, Inc., priority 2009, published 2011)
Several values for one entry are separate records, joined by “and”; a condition that tells them apart may be missing. Equal entries are not always repeated.

Test system: subjects with chronic idiopathic thrombocytopenic purpura (ITP)
Assay: Phase 2 double-blind placebo-controlled dose-ranging 28-day study of E5501 tablets: platelet count response (responder rate)
Format: in vivo, human
Conditions: for subjects with sustained platelet increases that met the criteria for positive response: 28 days
Method: This was a phase 2, multi-center, double-blind, randomized, placebo-controlled, dose-ranging, parallel group study of E5501 tablets, used in the treatment of subjects with chronic idiopathic thrombocytopenic purpura (ITP) refractory to or relapsed after at least one prior ITP therapy. Subjects who met all entry criteria were randomly assigned in a 3:3:3:3:1 ratio to one of the following five treatment groups dosed daily for 28 days: 1) E5501 2.5 mg; 2) E5501 5 mg; 3) E5501 10 mg; 4) E5501 20 mg; or 5) placebo (PBO). Each E5501 dosing group consisted of 15 subjects while the PBO group consisted of 5 subjects. All study subjects were evaluated weekly (days 7, 14, 21 and 28) for safety and efficacy while receiving study treatment, with a final assessment for safety and effectiveness performed 4 weeks after the last study dose (day 56) unless the subject entered the follow-on study. Platelet counts were also measured on day 3 and day 5.
The primary objective of this study was to assess platelet count response to E5501 on day 28. The response rate was defined as the proportion of subjects who were not on steroids with a screening visit B platelet count <30,000/mm^3 and who achieved a platelet count ≧50,000/mm^3, together with the proportion of subjects receiving steroids with a screening visit B platelet count ≧30,000/mm^3 but <50,000/mm^3 who achieved a platelet count ≧20,000/mm^3 above their screening visit B platelet count. Secondary objectives of the study included the evaluation of other markers of effectiveness, including changes in peripheral blood platelet count, the proportion of subjects who achieved a platelet count ≧50,000/mm^3 and ≧100,000/mm^3, and the proportion of subjects who achieved a doubling of their platelet count at screening visit B and the assessment of the safety and tolerability of E5501.
Primary efficacy endpoint. The primary endpoint in this study was E5501 responder rate on day 28. A responder is defined as a subject with screening visit B platelet count <30,000/mm^3 who achieves a platelet count ≧50,000/mm^3 or a subject receiving steroids with a screening visit B platelet count ≧30,000/mm^3 but <50,000/mm^3 who achieves a platelet count ≧20,000/mm^3 above their screening visit B platelet count.
The secondary endpoints included changes from screening visit B in peripheral blood platelet counts over time; the proportion of subjects who achieved a platelet count of ≧50,000/mm^3 or ≧100,000/mm^3 on day 28 and the proportion of subjects whose platelet count doubled compared to their platelet count at Screening Visit B.
The populations of interest were defined as follows: • The randomized population included all subjects who were randomized into the study. • The safety population included all randomized subjects who receive at least one dose of study drug and have at least one safety assessment. • The pharmacokinetic (PK) population included all subjects who provided blood sample for analysis of E5501. A subject was included in this population if the subject had at least one blood draw for PK assessment. • The full analysis set (FAS) included all subjects who provided adequate data to derive at least one efficacy assessment. […] The day 28 visit window was defined to be from day 25, to last dose day+1, inclusively; • Other major protocol violations that impacted the platelet endpoint evaluation. Results from Planned Analyses
Primary Efficacy Endpoint. The analysis of efficacy was performed both on the FAS population and the PP population at day 28 visit with LOCF and observed case (OC) approaches. The primary analysis population was the FAS. Fisher's exact test was used to examine the difference of response rates among each treatment pair. All p-values are nominal without adjustment for multiplicity.
Secondary Efficacy Endpoint. Analyses for secondary efficacy endpoints were performed by treatment group and by analysis visit using both LOCF and OC methods. […]

[1] = Day 3, FAS, Observed Case, 2.5 mg
[2] = Day 3, FAS, Observed Case, 5 mg
[3] = Day 3, FAS, Observed Case, 10 mg
[4] = Day 3, FAS, Observed Case, 20 mg
[5] = Day 3, FAS, Observed Case, Total E5501
[6] = Day 5, FAS, Observed Case, 2.5 mg
[7] = Day 5, FAS, Observed Case, 5 mg
[8] = Day 5, FAS, Observed Case, 10 mg
[9] = Day 5, FAS, Observed Case, 20 mg
[10] = Day 5, FAS, Observed Case, Total E5501
[11] = Day 28, Baseline Platelet Cnt. >15K/mm^3, 2.5 mg
[12] = Day 28, Baseline Platelet Cnt. >15K/mm^3, 5 mg
[13] = Day 28, Baseline Platelet Cnt. >15K/mm^3, 10 mg
[14] = Day 28, Baseline Platelet Cnt. >15K/mm^3, 20 mg
[15] = Day 28, Baseline Platelet Cnt. >15K/mm^3, Total E5501
[16] = Day 28, Baseline Platelet Cnt. ≦15K/mm^3, 2.5 mg
[17] = Day 28, Baseline Platelet Cnt. ≦15K/mm^3, 5 mg
[18] = Day 28, Baseline Platelet Cnt. ≦15K/mm^3, 10 mg
[19] = Day 28, Baseline Platelet Cnt. ≦15K/mm^3, 20 mg
[20] = Day 28, Baseline Platelet Cnt. ≦15K/mm^3, Total E5501
[21] = Day 28, Full Analysis Population, LOCF, 2.5 mg
[22] = Day 28, Full Analysis Population, LOCF, 5 mg
[23] = Day 28, Full Analysis Population, LOCF, 10 mg
[24] = Day 28, Full Analysis Population, LOCF, 20 mg
[25] = Day 28, Full Analysis Population, LOCF, Total E5501
[26] = Day 28, No Previous History of Splenectomy, 2.5 mg
[27] = Day 28, No Previous History of Splenectomy, 5 mg

Compound: O=C(Nc1nc(-c2cc(Cl)cs2)c(N2CCN(C3CCCCC3)CC2)s1)c1cnc(N2CCC(C(=O)O)CC2)c(Cl)c1 [E5501, 1-(3-chloro-5-{[4-(4-chlorothiophen-2-yl)-5-(4-cyclohexylpiperazin-1-yl)thiazol-2-yl]carbamoyl}pyridine-2-yl)piperidine-4-carboxylic acid]
- subjects refractory to splenectomy who responded (20 mg): 66.7%
- reduction in the response rate from day 7 to 28 days (20 mg dose group): about 15%
- platelet counts from baseline (FIG. 1) (28 day study period, 2.5-20 mg): markedly increased platelet counts from baseline
- subjects with sustained platelet increases that met the criteria for positive response (5 mg): 28.6%
- subjects with sustained platelet increases that met the criteria for positive response (10 mg): 41.7%
- subjects with sustained platelet increases that met the criteria for positive response (20 mg): 76.9% and ~80%
- Responder, No [1]: 4 (100.0) n (%)
- Responder, Yes [1]: 0 n (%)
- Responder, No [2]: 3 (100.0) n (%)
- Responder, Yes [2]: 0 n (%)
- Responder, No [3]: 2 (100.0) n (%)
- Responder, Yes [3]: 0 n (%)
- Responder, No [4]: 3 (75.0) n (%)
- Responder, Yes [4]: 1 (25.0) n (%)
- Responder, No [5]: 12 (92.3) n (%)
- Responder, Yes [5]: 1 (7.7) n (%)
- Responder, No [6]: 4 (100.0) n (%)
- Responder, Yes [6]: 0 n (%)
- Responder, No [7]: 2 (33.3) n (%)
- Responder, Yes [7]: 4 (66.7) n (%)
- Responder, No [8]: 3 (75.0) n (%)
- Responder, Yes [8]: 1 (25.0) n (%)
- Responder, No [9]: 4 (80.0) n (%)
- Responder, Yes [9]: 1 (20.0) n (%)
- Responder, No [10]: 13 (68.4) n (%)
- Responder, Yes [10]: 6 (31.6) n (%)
- Nonresponder (Day 7, FAS, LOCF, 2.5 mg): 14 (93.3) n (%)
- Responder (Day 7, FAS, LOCF, 2.5 mg): 1 (6.7) n (%)
- Nonresponder (Day 7, FAS, LOCF, 5 mg): 5 (33.3) n (%)
- Responder (Day 7, FAS, LOCF, 5 mg): 10 (66.7) n (%)
- Nonresponder (Day 7, FAS, LOCF, 10 mg): 5 (35.7) n (%)
- Responder (Day 7, FAS, LOCF, 10 mg): 9 (64.3) n (%)
- Nonresponder (Day 7, FAS, LOCF, 20 mg): 1 (6.7) n (%)
- Responder (Day 7, FAS, LOCF, 20 mg): 14 (93.3) n (%)
- Nonresponder (Day 7, FAS, LOCF, Total E5501): 25 (42.4) n (%)
- Responder (Day 7, FAS, LOCF, Total E5501): 34 (57.6) n (%)
- Nonresponder (Day 14, FAS, LOCF, 2.5 mg): 12 (80.0) n (%)
- Responder (Day 14, FAS, LOCF, 2.5 mg): 3 (20.0) n (%)
- Nonresponder (Day 14, FAS, LOCF, 5 mg): 6 (40.0) n (%)
- Responder (Day 14, FAS, LOCF, 5 mg): 9 (60.0) n (%)
- Nonresponder (Day 14, FAS, LOCF, 10 mg): 3 (21.4) n (%)
- Responder (Day 14, FAS, LOCF, 10 mg): 11 (78.6) n (%)
- Nonresponder (Day 14, FAS, LOCF, 20 mg): 1 (6.7) n (%)
- Responder (Day 14, FAS, LOCF, 20 mg): 14 (93.3) n (%)
- Nonresponder (Day 14, FAS, LOCF, Total E5501): 22 (37.3) n (%)
- Responder (Day 14, FAS, LOCF, Total E5501): 37 (62.7) n (%)
- Nonresponder (Day 21, FAS, LOCF, 2.5 mg): 13 (86.7) n (%)
- Responder (Day 21, FAS, LOCF, 2.5 mg): 2 (13.3) n (%)
- Nonresponder (Day 21, FAS, LOCF, 5 mg): 6 (40.0) n (%)
- Responder (Day 21, FAS, LOCF, 5 mg): 9 (60.0) n (%)
- Nonresponder (Day 21, FAS, LOCF, 10 mg): 7 (50.0) n (%)
- Responder (Day 21, FAS, LOCF, 10 mg): 7 (50.0) n (%)
- Nonresponder (Day 21, FAS, LOCF, 20 mg): 2 (13.3) n (%)
- Responder (Day 21, FAS, LOCF, 20 mg): 13 (86.7) n (%)
- Nonresponder (Day 21, FAS, LOCF, Total E5501): 28 (47.5) n (%)
- Responder (Day 21, FAS, LOCF, Total E5501): 31 (52.5) n (%)
- Responder, No [11]: 8 (80.0) n (%)
- Responder, Yes [11]: 2 (20.0) n (%)
- Responder, No [12]: 6 (46.2) n (%)
- Responder, Yes [12]: 7 (53.8) n (%)
- Responder, No [13]: 4 (44.4) n (%)
- Responder, Yes [13]: 5 (55.6) n (%)
- Responder, No [14]: 2 (18.2) n (%)
- Responder, Yes [14]: 9 (81.8) n (%)
- Responder, No [15]: 20 (46.5) n (%)
- Responder, Yes [15]: 23 (53.5) n (%)
- Responder, No [16]: 5 (100.0) n (%)
- Responder, Yes [16]: 0 n (%)
- Responder, No [17]: 1 (50.0) n (%)
- Responder, Yes [17]: 1 (50.0) n (%)
- Responder, No [18]: 3 (60.0) n (%)
- Responder, Yes [18]: 2 (40.0) n (%)
- Responder, No [19]: 1 (25.0) n (%)
- Responder, Yes [19]: 3 (75.0) n (%)
- Responder, No [20]: 10 (62.5) n (%)
- Responder, Yes [20]: 6 (37.5) n (%)
- Responder, No [21]: 13 (86.7) n (%)
- Responder, Yes [21]: 2 (13.3) n (%)
- Responder, No [22]: 7 (46.7) n (%)
- Responder, Yes [22]: 8 (53.3) n (%)
- Responder, No [23]: 7 (50.0) n (%)
- Responder, Yes [23]: 7 (50.0) n (%)
- Responder, No [24]: 3 (20.0) n (%)
- Responder, Yes [24]: 12 (80.0) n (%)
- Responder, No [25]: 30 (50.8) n (%)
- Responder, Yes [25]: 29 (49.2) n (%)
- Responder, No [26]: 9 (90.0) n (%)
- Responder, Yes [26]: 1 (10.0) n (%)
- Responder, No [27]: 5 (45.5) n (%)
- Responder, Yes [27]: 6 (54.5) n (%)
- Responder, No (Day 28, No Previous History of Splenectomy, 10 mg): 5 (45.5) n (%)
